# Assay results from PubChem BioAssay (NCI).
# “And” between values parts separate entries of the source, which are not always exact repeats. Equal entries are not always repeated.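 How tested: cells in 96-well plates exposed to compound for 48 hours at five concentrations. Here, GI50 denotes the concentration required for 50% inhibition of growth. At the TGI there is no net growth.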
# Legend:
# Assay in all cases: NCI tumour cell line growth inhibition, 48 h
# [1] = tested on: DLD-1 colon
# [2] = tested on: LXFL 529 NSCLC
# [3] = tested on: KM20L2 colon
# [4] = tested on: RXF-631 renal
# [5] = tested on: XF 498 CNS
# [6] = tested on: HOP-18 NSCLC
# [7] = tested on: SN12K1 renal
# [8] = tested on: P388/ADR leukemia
# [9] = tested on: MDA-N
# [10] = tested on: P388 leukemia
SMILES,TGI [1],TGI [2],TGI [3],TGI [4],TGI [5],TGI [6],also measured
O=c1[nH]c(-c2ccc(-c3nc4cc([N+](=O)[O-])ccc4c(=O)[nH]3)cc2)nc2cc([N+](=O)[O-])ccc12,> 100 µM,> 100 µM,> 100 µM,> 100 µM,,,
CCOC(=O)C1=C(Nc2cccc3ccccc23)OC/C1=N\NC(=O)c1ccccc1O,81.5 µM,> 100 µM,90.8 µM,> 100 µM,30.7 µM,83.7 µM,
O=C(Nc1nc(=S)c2c(ncn2CCO)[nH]1)c1ccccc1,> 100 µM,> 100 µM,> 100 µM,,> 100 µM,> 100 µM,
CS/C(=N\c1nccs1)NC(=O)c1cccc(Cl)c1,> 100 µM,> 100 µM,> 100 µM,> 100 µM,,> 100 µM,
OCC1OC(n2cnc3c(=S)nc[nH]c32)C(O)C1O (stereo not drawn),,,> 2500 µM,,> 1400 µM,> 2500 µM,TGI [7]: > 2500 µM; TGI [8]: > 2500 µM; TGI [9]: > 2500 µM; TGI [10]: > 2500 µM
CC12CC(OC(=O)[C@]1(C)O)[C@@H]([C@]1(O)CC[C@H]3[C@@H]4C[C@H]5O[C@]56[C@@H](O)C=CC(=O)[C@]6(C)[C@H]4CC[C@@]31C)C2 (stereo partly drawn),,,,,,,TGI [9]: 26.9 µM
C=CCC(OCCOCC)c1cc(OCCOCC)ccc1OC (stereo not drawn),,> 100 µM,,,> 100 µM,,
CCCC(Sc1ccccc1)P(=O)(c1ccccc1)c1ccccc1 (stereo not drawn),> 100 µM,,> 100 µM,94.7 µM,,,
COC(=O)c1cc(-c2cccn2C)c2c(c1C(=O)OC)c1ccccc1n2C,> 100 µM,> 100 µM,,> 100 µM,> 100 µM,> 100 µM,
CCC1CCc2c(OC)ccc(OCC(=O)O)c2C1=O (stereo not drawn),> 100 µM,> 100 µM,,,> 100 µM,,
COC(=O)C1=C(C(=O)OC)SC(=C(N=Nc2ccccc2)c2ccccc2)S1,> 100 µM,> 100 µM,> 100 µM,> 100 µM,,> 100 µM,
COC(=O)C(F)C(Br)C(=O)OC (stereo not drawn),,,,,,,TGI [9]: 22.7 µM
Clc1nc(Cl)c(-c2ccccc2)c(Cl)n1,,,,,,,TGI [9]: 6.67 µM
C=C1CCC2[C@@H](CCC3[C@]2(C)CCC[C@]3(C)C(=O)OC)C1CCO (stereo partly drawn),46.8 µM,21 µM,22.8 µM,,22.6 µM,29.9 µM,
O=C1c2ccccc2CC1C1(O)C(=O)Nc2ccccc21 (stereo not drawn),> 100 µM,> 100 µM,> 100 µM,> 100 µM,> 100 µM,,
Cc1ccc(Sc2ccc(C)cc2[N+](=O)[O-])c([N+](=O)[O-])c1,,> 100 µM,> 100 µM,,> 100 µM,> 100 µM,
COc1cc(/C=C/C(=O)c2sc(NNC(C)=O)nc2C)ccc1O,> 100 µM,,> 100 µM,> 100 µM,,> 100 µM,
C=CC1C(OC2OC(CO)C(O)C(O)C2O)OC=C(C(=O)OC)C1CC=O (stereo not drawn),> 100 µM,> 100 µM,> 100 µM,> 100 µM,,> 100 µM,
CC1CCC(C(C)C)C(O[C@@H]2OC(=O)C[C@@H]2Sc2ccccc2)C1 (stereo partly drawn),> 100 µM,46.1 µM,,69.8 µM,,,

SMILES,TGI [1],TGI [2],TGI [3],TGI [4],TGI [5],TGI [6],also measured
C1CCOC2(CCC3(CC2)OCCCCO3)OC1,> 100 µM,> 100 µM,> 100 µM,,,> 100 µM,
CCC(/C=C/c1ccccc1)=N\Nc1ccc(Cl)c(Cl)c1,,,,,,,TGI [9]: > 100 µM
c1ccc(P(CCP(CCP(c2ccccc2)c2ccccc2)c2ccccc2)CCP(c2ccccc2)c2ccccc2)cc1 (stereo not drawn),,,,,,,GI50 [9]: > 10 µM and 3.35 µM; TGI [9]: > 10 µM
O=C(CCc1cc(-c2ccccc2)nc(=S)[nH]1)Nc1ccccc1[N+](=O)[O-],,> 100 µM,> 100 µM,> 100 µM,91.5 µM,> 100 µM,
CC#CC1C(OC(=O)c2ccccc2)CCCC1(CI)N=[N+]=[N-] (stereo not drawn),> 100 µM,> 100 µM,> 100 µM,,78.7 µM,> 100 µM,
CC(=O)NC1CC2Oc3ccc(C)cc3C(C)(O2)C1O (stereo not drawn),> 100 µM,,,,> 100 µM,> 100 µM,
c1ccc(CSc2nnc3c4ccccc4c4ccccc4c3n2)cc1,,,,,,,TGI [9]: > 100 µM
CCOC(=O)c1nc(-c2ccccc2)oc1OCC,> 100 µM,> 100 µM,> 100 µM,,> 100 µM,> 100 µM,
C[C@@H](NC1CCC[C@H]1O)c1ccccc1 (stereo partly drawn),> 100 µM,> 100 µM,> 100 µM,,> 100 µM,> 100 µM,
CCN(CC)CC(C(=O)Nc1c(C)cccc1C)/C(C)=N\NC(=O)c1ccncc1 (stereo not drawn),> 100 µM,> 100 µM,,> 100 µM,> 100 µM,> 100 µM,
COc1cc(C)c(O)c(C(=O)O)c1,> 100 µM,> 100 µM,> 100 µM,,> 100 µM,> 100 µM,
C/C=C/C=C/CCCCCCCCCCCCCC1(OC)C=CC(CC(=O)OC)OO1 (stereo not drawn),23.8 µM,16.7 µM,3.51 µM,29.1 µM,15.8 µM,,GI50 [1]: 5.79 µM; GI50 [2]: 4.7 µM; GI50 [5]: 6.59 µM; GI50 [3]: 1.89 µM; GI50 [4]: 10.8 µM
CSC1(SC2=NCCN2)SC2(NCCN2)S1,,,,,,,TGI [9]: 49.1 µM
CN(C)c1ccc(C(=C2C=CC(=[N+](C)C)C=C2)c2ccc(N(C)C)cc2)cc1,1.74 µM,1.03 µM,0.938 µM,,0.193 µM,,
N#Cc1cc([N+](=O)[O-])ccc1NC(=O)/C(=N/N)C(C(=O)c1ccc(Cl)c(Cl)c1)C1OC(=O)c2ccccc21 (stereo not drawn),> 100 µM,> 100 µM,,,,,
O=C1CCC2(c3ccccc3)Nc3ncccc3N12 (stereo not drawn),> 100 µM,> 100 µM,> 100 µM,,> 100 µM,,
Nc1nc(N)c(N=O)c(OCC2CCCCC2)n1,,,,,,,TGI [9]: 67.4 µM
CC(=O)Nc1ccc(/C=C/C(=O)c2sc(-c3nc(C)c(C(=O)/C=C/c4ccc(NC(C)=O)cc4)s3)nc2C)cc1,> 100 µM,> 100 µM,> 100 µM,> 100 µM,> 100 µM,,
COc1ccc(/C=C2\CCC(CN(C)C)C2=O)cc1OC (stereo not drawn),8.83 µM,6.7 µM,32.3 µM,16.3 µM,26.3 µM,35.1 µM,
